Source: paper PMC10577883, “Design and Optimization of Novel Competitive, Non-peptidic, SARS-CoV-2 M^pro Inhibitors” (ACS Medicinal Chemistry Letters, 2023)
Values joined by “and” are separate entries in the source; they are usually repeats but may differ in a detail not shown here. Equal entries are not always repeated.

How the values were obtained:
[1] = tested on: SARS-CoV-2 Mpro; conditions: cited from earlier work; for IC50: literature value
[2] = in vitro; conditions: chlorocebus sabaeus
[3] = tested on: SARS-CoV-2-Nluc reporter virus; assay: microbe, parasite or virus in culture; type: cell-based; conditions: for EC50: Severe acute respiratory syndrome coronavirus 2, VeroE6/TMPRSS2 cells, parentheses denote 95% confidence intervals
[4] = biological target: SARS-CoV-2 Mpro (3CLpro) (Severe acute respiratory syndrome coronavirus 2, UniProt P0DTD1); assay: SARS-CoV-2 recombinant protease enzymatic assay (FRET); type: biochemical; conditions: recombinant Mpro, FRET peptide substrate
[5] = Human liver microsome stability assay
Method: Metabolic Stability Assay
(§1) Liver Microsome Stability Assay Protocol
(§2) Human liver microsomes (HLMs, 20 mg/mL), CD-1 mouse liver microsomes (MLMs, 20 mg/mL), Sprague Dawley
(§3) rat liver microsomes (RLMs, 20 mg/mL) were purchased from Xenotech. NADPH was purchased from Sigma-
(§4) Aldrich and prepared in 10 mM stock solutions of distilled H2O (InvitrogenTM UltraPureTM). Verapamil and
(§5) diphenhydramine were both purchased from Sigma-Aldrich and served as positive controls for LM stability assays.
(§6) Test compounds and positive controls were initially dissolved in DMSO to make 10 mM stock solutions. Sample
(§7) solutions were then further diluted in 100% MeCN to 500 μM. Next, the reactions were prepared by mixing human
(§8) or mouse liver microsomes (55 μL) with potassium phosphate buffer (100 mM, 928 μL) in 1.5 mL Eppendorf tubes.
(§9) The test compounds (6.6 μL of 500 μM solution) were subsequently added to the suspensions, and the reaction
(§10) mixtures were incubated at 37 °C for 5 min. Afterward, the liver microsome reactions were initiated with 110 μL
(§11) of 10 mM NADPH and further incubated at 37 °C for the designated time course of the study. This procedure
(§12) provided experiments with a final volume of 1100 μL (0.6% organic solvent content) and a final test compound
(§13) concentration of 3 μM. Aliquots (100 μL) were removed from each reaction mixture in duplicate at 0, 5, 10, 15,
(§14) and 30 min time intervals and quenched with 100 μL of cold internal standard solution (ISTD, 2 μM
(§15) 7-ethoxy-d 5-coumarin in MeOH or MeCN). Quenched aliquots were then centrifuged at 12,500 g for 5-10 min, and
(§16) the resulting supernatants were withdrawn and placed in LC-MS vials to be analyzed by LC-MS/MS (Agilent
(§17) G6460C QQQ MS coupled with an Infinity II 1260 HPLC). Each test compound was run in tandem with positive and
(§18) negative control experiments for quality assurance. Positive control reactions were conducted at a final volume
(§19) of 550 μL for a single run of each time point. Lastly, the negative control experiment was conducted with test
(§20) compounds and liver microsomes in the absence of NADPH (150 μL) and analyzed at the 30 min time point.
(§21) Data Analysis. Each data point was analyzed in triplicate using in-between blank washes to avoid carry over and
(§22) to equilibrate the column for the subsequent runs. Averages of these triplicates for individual compounds at each
(§23) time point were then normalized to the data at 0 min, representing 100% test compound remaining or 0%
(§24) metabolism. Half-lives (t 1/2) were calculated by plotting ln of % test compound remaining versus time and
(§25) performing linear regression to determine slope.
(§26) Instrumentation and LC-MS/MS Method Development
(§27) LC-MS/MS analyses were conducted on an Agilent 1260 Infinity II HPLC equipped with an Agilent G6460 triple
(§28) quadrupole mass spectrometer (Agilent Technologies, USA). Reverse-phase HPLC separation for each compound
(§29) m) column maintained at 40 °C. The mobile phase used during analyses consisted of either MeOH-H2O (0.1% FA)
(§30) or MeCN-H2O (0.1% FA) at a flow rate of 0.5 mL/min. Each method was developed in the presence of the internal
(§31) standard (ISTD), 7-ethoxy-d 5-coumarin. Precursor and product ion detection was performed with Agilent Jet
(§32) Stream electrospray positive ionization (ESI+) in multiple reaction monitoring (MRM) mode. All MRM transitions,
(§33) MS conditions were as follows: dwell time of 100 ms; gas flow of 10 L/min; nebulizer pressure of 45 psi; delta EMV
(§34) of 200 V. Lastly, all acquired data was processed using Agilent 6460 Quantitative Analysis software.

[6] = Rat liver microsome stability assay; conditions: 37 °C
Method: Metabolic Stability Assay
as §1, §2, §3, §4, §5, §6, §7, §8, §9, §10, §11, §12, §13, §14, §15, §16, §17, §18, §19, §20, §21, §22, §23, §24, §25, §26, §27, §28, §29, §30, §31, §32, §33, §34

[7] = Mouse liver microsome stability assay
Method: Metabolic Stability Assay
as §1, §2, §3, §4, §5, §6, §7, §8, §9, §10, §11, §12, §13, §14, §15, §16, §17, §18, §19, §20, §21, §22, §23, §24, §25, §26, §27, §28, §29, §30, §31, §32, §33, §34

SMILES | CC50 [2] [nM] | EC50 [3] [nM] | IC50 [4] | other results
N#Cc1ccccc1-c1cc(-c2ccccn2)cn(-c2ccccc2)c1=O [Perampanel, perampanel] | – | – | – | IC50 [1]: 100000 to 200000 nM
N#Cc1ccccc1-c1cc(-c2cccc(Cl)c2)c(=O)n(-c2cccnc2)c1 [Compound 2] | – | – | – | IC50 [1]: 9990 nM; improvement in potency over 1 ([1]; relative to perampanel 1): 10 fold
Cn1c([N+](=O)[O-])cnc1COc1cc(Cl)cc(-n2cc(-c3ccc[nH]c3=O)c(=O)n(-c3cccnc3)c2=O)c1 [Compound 42] | > 100000 | 19300 | 12 nM | –
O=c1[nH]cccc1-c1cn(-c2cc(Cl)cc(OCC3CC3)c2)c(=O)n(-c2cccnc2)c1=O [Compound 35] | > 100000 | 820 | 100 nM | –
Cc1scnc1COc1cc(Cl)cc(-n2cc(-c3ccc[nH]c3=O)c(=O)n(-c3cccnc3)c2=O)c1 [Compound 39] | > 100000 | 5000 | 17 nM | –
O=c1[nH]cccc1-c1cn(-c2cc(Cl)cc(Cl)c2)c(=O)n(-c2cccnc2)c1=O [Compound 6] | > 100000 | 500 | 276 nM and 280 nM | EC50 range in words [3]: sub-micromolar
O=c1[nH]cccc1-c1cn(-c2cc(Cl)cc(OCc3ncsc3C(F)(F)F)c2)c(=O)n(-c2cccnc2)c1=O [Compound 45] | > 100000 | 820 | 12 nM | HLM percentage remaining after 30 min ([5]; 3 μM, 37 °C, 30 min): 19.5% and 19.47%; half-life at 3 µM ([5]; human, microsomes): 13 min; remaining at 5 min, 3 µM ([5]; human, microsomes): 84.6%; remaining at 10 min, 3 µM ([5]; human, microsomes): 49.9%; remaining at 0.25 h, 3 µM ([5]; human, microsomes): 48.5%; RLM percentage remaining after 30 min ([6]; 3 μM, 30 min): 30.9%; half-life at 3 µM ([6]; Sprague-Dawley, rat, microsomes, RLM t1/2, 3 μM, unit inferred): 18 min; EC50 range in words [3]: sub-micromolar; MLM percentage remaining after 30 min ([7]; 3 μM, 37 °C, 30 min): 14.4% and 14.41%; half-life at 3 µM ([7]; CD-1, mouse, microsomes): 11 min; remaining at 5 min, 3 µM ([7]; CD-1, mouse, microsomes): 54.6%; remaining at 10 min, 3 µM ([7]; CD-1, mouse, microsomes): 43%; remaining at 0.25 h, 3 µM ([7]; CD-1, mouse, microsomes): 20.6%
Cc1scnc1COc1cc(Cl)cc(-n2cc(-c3ccc(=O)[nH]c3)c(=O)n(-c3cccnc3)c2=O)c1 [Compound 51] | > 100000 | > 20000 | 120 nM | –
